In US20140274785A1, “BIOMARKERS” (priority 2013, published 2014):
Entries after “also recorded” stand apart in the source; their conditions may differ.

Experiments:
SOD1-G93A TGN mice = test: Onset of symptoms (stride length/gait analysis) and death in SOD1-G93A TGN mice, treatment started presymptomatic (7 weeks); type: in vivo, mouse; conditions: for Onset of motor deficits: vehicle 20% cyclodextran 88-100 days; for Mortality: vehicle 20% cyclodextran 105-112 days
Procedure: The one and two-drug treatments were started at an early (i.e., presymptomatic) stage of disease (7 weeks). SOD1-G93A TGN mice were treated 3 times a week with noscapine (0.2 mg/kg body weight) and/or MK-801 (12 mg/kg body weight/day). Mice received noscapine intraperitoneally and MK-801 in drinking water.
Female SOD-1 G93A TGN mice were obtained from Jackson laboratory (strain #2726). The controls were matched litter mates. Treatment groups were three per group. Noscapine was injected intraperitoneal in the thigh 3 times/week (0.2 mg/kg i.p.) and MK801 was administered continuously in drinking water (12 mg/kg/d). Gait analysis was done by the method of Wooley et al., Muscle Nerve 2005 32(1):43-50 and Carter et al. J. Neurosci., 19(8):3248-3257, hereby incorporated by reference in their entirety.
For clinical assessment endpoints scoring was selected as follows:
Clinical signs: Full mobility and no observable difference in behavior from age-matched controls (Gait or stride length analysis).
Clinical signs: Abnormal Gait or stride length analysis and hindlimb weakness: >40% reduction in stride length vs. age-matched littermates.
Clinical signs: noticeable and complete hind limb paralysis (which in this strain occurs more on one limb than the other) and inability to right themselves in 5 sec time window. This stage starts usually as the mice are failing the gait analysis test and enter the End stage. Therefore, Transgenic SOD1-G93A TGN mice are euthanized at the onset of noticeable and complete hindlimb paralysis and inability to right themselves in 5 sec time window.

[1] = test system: fast axonal transport of 2H-labeled cargo proteins; test: MT-mediated fast axonal transport: CSF secretion kinetics and spinal cord retention of 2H-labeled cargo proteins in symptomatic SOD1G93A mice; type: in vivo, mouse
hyperdynamic MTs = test: Microtubule turnover in MPTP-injected PD mouse model; type: in vivo; conditions: treatment from 7 days after last MPTP injection for 10 days; n=4
Procedure: FIGS. 28A-28B show an illustration of altered microtubule (MT) turnover in two preclinical models of Parkinson's disease (PD). (A) The acute MPTP intoxication PD model (8 wk old C57b1/6 mice were injected four times with 20 mg/kg on 1 day, at 2 h interval) show hyperdynamic tau-associated and cold-stable (CS) MTs in striatum and substantia nigra at 3 and 7 days after the last (fourth) MPTP injection (n=4 per group, males aged 8 weeks, mean±SD; *P<0.001). (B) In vivo MT dynamics was measured in substantia nigra and striatum at presymptomatic (4 and 10 months) and symptomatic (15 months) disease stage in transgenic alpha-synucleinA53T PD mice (−/−/SNCAA53T). […]
FIGS. 29A-29C show normalized microtubule (MT) turnover correlate with reverse of symptoms in the MPTP-injected PD mouse model after treatment with the MTMA noscapine. […] Neuromuscular strength was measured using the grip strength test (B) and the grid hang test (C). Grip strength test measured the tension peak of pull (gram of force) by the forepaws and it was performed 1 day before (day 0), 1, 2, 3, 4, 5, 7 and 17 days after the last (fourth) MPTP injection (n=10, males per each time point). The hang test was performed 17 days after the last (fourth) MPTP-injection and percentage of success was recorded as maximum time hanging/300 sec×100 (n=10, males per each time point).

MPTP-injected mice = test: Neuromuscular strength (grip strength test, grid hang test) in MPTP-injected mice; type: in vivo, mouse; conditions: treatment from 7 days after last MPTP injection for 10 days; n=10
Procedure: Noscapine was administered at 7 days after the last MPTP-injection, treatment was for 10 days and a pulse of ^2H2O labeling was administered the last day of treatment (17 days after, fourth, MPTP injection). […] Neuromuscular strength was measured using the grip strength test (B) and the grid hang test (C). […] The hang test was performed 17 days after the last (fourth) MPTP-injection and percentage of success was recorded as maximum time hanging/300 sec×100 (n=10, males per each time point).

[2] = test system: transport of neuronal cargo proteins; test: CSF secretion kinetics of 2H-labeled cargo proteins in symptomatic PD MPTP-injected mice; type: in vivo, mouse
Procedure: Noscapine was administered 7 days after the last MPTP injection, treatment was for 10 days, and a pulse of ^2H2O labeling was administered on the last day of treatment (17 days after the fourth and final MPTP injection

SMILES | Onset of motor deficits (SOD1-G93A TGN mice) | Mortality (SOD1-G93A TGN mice) | MT-mediated fast axonal transport rates of 2H-label neuregulin-1 and chromogranin-B containing synaptic vesicles ([1]; 3 weeks treatment, 100 mg/kg/d and 200 mg/kg/d, 13 weeks mice) | kinetic of 2H-alpha synuclein in CSF ([1]; symptomatic ALS SOD1G93A) | transport rates of 2H-Chr-B, 2H-NeuR-1 and 2H-sAPP in CSF ([1]; symptomatic ALS SOD1G93A, vs age-matched wild type, n=10 per time point) | hyperdynamic MTs (hyperdynamic MTs) | symptoms (grip strength test, grid hang test) (MPTP-injected mice) | kinetics of 2H-NeuR-1 in CSF ([2]; symptomatic PD MPTP-injected mice) | kinetics of secretion of 2H-Chr-B, 2H-sAPP in CSF ([2]; treatment from 7 days after last MPTP injection for 10 days, n=10 per time point)
C[C@]12N[C@H](Cc3ccccc31)c1ccccc12 [MK-801, Dizocilipine] | 105 to 112 days | 112 to 119 days | – | – | – | – | – | – | –
COc1ccc2c(c1OC)C(=O)O[C@@H]2[C@H]1c2c(cc3c(c2OC)OCO3)CCN1C [Noscapine, noscapine] | 98 to 105 days | 112 to 119 days | normalized; also recorded: improves this delayed fast axonal transport | not adversely affected | normalized transport rates | reduced hyperdynamic MTs | reverses symptoms | not adversely affected | normalized the kinetics of secretion
